Test results published in patent US20140121240A1, “NOVEL PHARMACEUTICAL COMPOSITION” (MARUHO CO., LTD., priority 2011, published 2014).
Marks after values point to notes of the source that are not given here.

Tests used:
[1] = test system: oxazolone-induced inflammatory reactions of right ear auricle; test: Chronic oxazolone-induced dermatitis model: ear auricle thickness (Experiment 4); format: in vivo, mouse; settings: Compound A 1%, Tacrolimus 0.1%, Dexamethasone 0.01% w/v in 0.25% oxazolone
Method: (§1) [Antipruritic Effect of Test Compound in Chronic Oxazolone-Induced Dermatitis Model]
(§2) A magnet for measurement was implanted into an instep part of right hindlimb of BALB/c male mouse (fed for one week from five-week old; Charles River Laboratories, Japan Inc.) under anesthesia, and on the same day, sensitization was carried out by topically administering 0.5% w/v solution (10 μL) of oxazolone in acetone respectively onto the both sides of right ear auricle of the animal (sensitization day). On each point of the 7th, 9th, 11th, 14th and 16th day reckoned from the day after the sensitization (1st day), each mouse was challenged by topical administration of a 10 μL solution of test compound [acetone (vehicle-treated group), 0.25% w/v solution of oxazolone in acetone (oxazolone-treated group), or a test compound solubilized in 0.25% w/v oxazolone solution in acetone (test compound-treated group)] onto the both sides of right ear auricle of the animal to produce inflammatory reactions. Immediately after the administration, scratching behavior (counts of scratching) was measured for two hours by MicroAct. Thickness of right ear auricle of each mouse was measured by a thickness gauge before and 24 hours after the topical administration of each test compound solution. The percentage described in the Table means “% w/v”.

[2] = test system: histamine-induced scratching behavior; test: Antipruritic effect in histamine-induced scratching model (Experiment 2); format: in vivo, mouse
Method: [Antipruritic Effect of Test Compound in Histamine-Induced Scratching Model]
After topical administration of a 3% w/v solution of a test compound or a reference compound as described in the following Table 6 in acetone (50 μL) or a vehicle (acetone; 50 μL) onto right dorsal neck of ICR female mice similarly pre-treated as described in Experiment 1, these animals were placed into a testing apparatus (MicroAct). After one hour of the administration of said compound solution or vehicle, a solution (50 μL) of histamine in saline (300 nmol/50 μL) or saline (50 μL) was intradermally administered to right dorsal neck of each mouse. Immediately after the administration, scratching behavior (counts of scratching) was measured for 30 minutes by MicroAct.
Inhibition rate on scratching behavior of each test compound was evaluated in terms of the following formula based on the counts of scratching in the test group in which each test compound solution was administered followed by administration of a histamine solution in saline (counts of scratching in compound-treated group), and the counts of scratching in the test group in which a vehicle (acetone) was administered followed by administration of a histamine solution in saline (counts of scratching in vehicle-treated group).
(§3) Ratio of inhibition rate on scratching behavior of each test compound to that of Compound A was calculated as antipruritic activity (%). For reference, PDE4 inhibitory activity of each compound (IC50) which was measured by a conventional manner is also shown in such Table.

[3] = test system: oxazolone-induced scratching behavior; test: Chronic oxazolone-induced dermatitis model: scratching behavior (Experiment 4); format: in vivo, mouse; settings: for Counts of scratching (Mean ± standard error): Compound A 1%, Tacrolimus 0.1%, Dexamethasone 0.01% w/v in 0.25% oxazolone
Method: as §1, §2

[4] = test system: spontaneous locomotor activity; test: Effect on spontaneous locomotor activity (Experiment 3 (2)); format: in vivo, mouse; settings: for Spontaneous locomotor activity (Mean): measured from 1 h after administration
Method: (2) [Effect of Test Compound on Spontaneous Locomotor Activity] The same solution (50 μL) of test compound or a vehicle (50 μL) as described in the above-mentioned (1) was administered onto right dorsal neck of ICR female mice similarly pre-treated as described in Experiment 1. After one hour of the administration of the test compound solution or vehicle, these animals were placed into an apparatus for measuring spontaneous locomotor activity (SCANET, Melquest Ltd.), and their locomotor activity was measured for 30 minutes.

PDE4 = PDE4 inhibitory activity measured by a conventional manner; format: biochemical
Method: as §3

[5] = test system: histamine-induced scratching behavior; test: Antipruritic activity in histamine-induced scratching model, dose response (Experiment 3 (1)); format: in vivo, mouse
Method: (1) [Antipruritic Activity of Test Compound in Histamine-Induced Scratching Model]
After topical administration of a solution (50 μL) of test compound (0.3 to 3% w/v solution of Compound A in acetone, or 0.03 to 0.3% w/v solution of cipamfylline in acetone), or a vehicle (acetone; 50 μL) onto right dorsal neck of ICR female mice similarly pre-treated as described in Experiment 1, these animals were placed into a testing apparatus (MicroAct). After one hour of the administration of said test compound solution or vehicle, a solution (50 μL) of histamine in saline (300 nmol/50 μL) or saline (50 μL; control group) was intradermally administered to right dorsal neck of each mouse. Immediately after the administration, scratching behavior (counts of scratching) was measured for 30 minutes by the testing apparatus (MicroAct).

SMILES: COc1cc2cc(CO)c(CO)c(-c3ccnc(N4CC[C@H](O)c5ccccc54)c3)c2cc1OC [Compound A, 1-[2-(4S)-4-hydroxy-1,2,3,4-tetrahydroquinolin-1-yl]-4-pyridyl]-2,3-bis(dihydroxymethyl)-6,7-dimethoxynaphthalene sesquihydrate]
- Ear auricle thickness (Mean) ([1]; 7th day): 0.35 mm
- Ear auricle thickness (Mean) ([1]; 8th day): 0.44** mm
- Ear auricle thickness (Mean) ([1]; 9th day): 0.39** mm
- Ear auricle thickness (Mean) ([1]; 10th day): 0.46** mm
- Ear auricle thickness (Mean) ([1]; 11th day): 0.44** mm
- Ear auricle thickness (Mean) ([1]; 12th day): 0.48** mm
- Ear auricle thickness (Mean) ([1]; 14th day): 0.44** mm
- Ear auricle thickness (Mean) ([1]; 15th day): 0.54** mm
- Ear auricle thickness (Mean) ([1]; 16th day): 0.47** mm
- Ear auricle thickness (Mean) ([1]; 17th day): 0.50** mm
- Ear auricle thickness (Mean) ([1]; sensitization day, BALB/c male mouse): 0.27 mm
- Antipruritic activity (ratio of inhibition rate on scratching behavior to that of Compound A) ([2]; 3% w/v in acetone 50 μL topical 1 h before histamine 300 nmol/50 μL, ICR female mice, counts for 30 minutes): 100%
- antipruritic effect in histamine-induced scratching model, result in words ([2]; 3% w/v topical, histamine 300 nmol/50 μL): remarkable antipruritic effect
- Counts of scratching (Mean ± standard error) ([3]; 7th day, BALB/c male mouse): 931 ± 135 (**) beats/2 hr.
- Counts of scratching (Mean ± standard error) ([3]; 9th day): 664 ± 99 (**) beats/2 hr.
- Counts of scratching (Mean ± standard error) ([3]; 11th day): 577 ± 77 (*) beats/2 hr.
- Counts of scratching (Mean ± standard error) ([3]; 14th day): 863 ± 122 (**) beats/2 hr.
- inhibitory effect on the counts of scratching (antipruritic effect), result in words ([3]; 16th day): inhibitory effect on the counts of scratching
- Counts of scratching (Mean ± standard error) ([3]; 16th day): 959 ± 166 (*) beats/2 hr.
- Spontaneous locomotor activity (Mean) ([4]; 0.3% w/v in acetone 50 μL topical): 5814 counts/30 min.
- Spontaneous locomotor activity (Mean) ([4]; 1% w/v in acetone 50 μL topical): 5779 counts/30 min.
- Spontaneous locomotor activity (Mean) ([4]; 3% w/v in acetone 50 μL topical): 6260 counts/30 min.
- spontaneous locomotor activity lowering effect at a dose producing antipruritic effect, result in words ([4]; Compound A 3% w/v, cipamfylline 0.3% w/v): did not show spontaneous locomotor activity lowering effect
- IC50 (PDE4): 3 nM
- Counts of scratching (Mean) ([5]; 0.3% w/v in acetone 50 μL topical 1 h before histamine 300 nmol/50 μL): 634 beats/30 min.
- Counts of scratching (Mean) ([5]; 1% w/v in acetone 50 μL topical 1 h before histamine 300 nmol/50 μL): 611 beats/30 min.
- Counts of scratching (Mean) ([5]; 3% w/v in acetone 50 μL topical 1 h before histamine 300 nmol/50 μL): 314 beats/30 min.
